Test system: RAW264.7 cells
Assay: CS-induced LTB4 production in RAW264.7 culture supernatants (LTB4 EIA)
Assay type: cell-based
Conditions: RAW264.7 cells pre-treated with 10 μM Zileuton for 1 h, then 120 μg/cm^2 CS for 6 h
Procedure: FIG. 10C depicts LTB4 production by cells in vitro, measured in culture supernatants of RAW264.7 cells exposed to 120 μg/cm^2 CS for 6 h in presence of 5-LO inhibitor.
LKR13 and RAW264.7cells were cultured in DMEM containing 10% FBS. For CS stimulation assays, 0.3 million cells were plated per well of 12-well tissue culture dishes in 400 μl of 1% FBS containing medium. The cells were stimulated for 6 h with 120 μg/cm^2 of CS. Whenever indicated RAW264.7 cells were pre-treated with 10 μM Zileuton (5-LO inhibitor) for 1 h.
Subcutaneous tumors were homogenized in 500 ul 1×PBS buffer containing 10 uM Indomethacin using Omni GLH general homogenizer. The homogenates were centrifuged at 14000 g for 10 min and LTB4 levels in the supernatants were quantified. The LTB4 levels were normalized to the amount of protein in the supernatants measured by Themo Sceintific Pierce BCA protein assay kit following manufacturer's instructions. LTB4 in the tumor homogenate supernatant was expressed as pg/mg of protein. LTB4 in cell culture supernatants, BALF, air pouch lavage and subcutaneous tumors was measured using LTB4 EIA Kit (Cayman Chemical) according to the manufacturer's instructions. IL-1β in cell culture supernatants was measured using Mouse IL-1β ELISA MAX™ Standard Kit (Biolegend) according to the manufacturer's instructions.

## CC(c1cc2ccccc2s1)N(O)C(N)=O (stereo not shown) [Zileuton]
  LTB4 production by CS activation: completely blocked
